The test addresses T1, PD-1/PD-L1 (Homo sapiens, UniProt Q9NZQ7).
T1 construct: Recombinant human PD-L1 protein (19-238) with a His-tagged at the C-terminus; purchased AcroBiosystems PD1-H5229 (PD-L1); PD1-H5257 (PD-1)
Put plainly: PD-1/PD-L1 homogeneous time-resolved fluorescence (HTRF) binding assay. The note with it: PD-1/PD-L1 HTRF binding, ~3 nM PD1, 10 nM PD-L1, 25° C., PBS pH 7.4.

The source of these data is patent US20220372031A1, “NOVEL TRICYCLIC AROMATIC HETEROCYCLIC COMPOUND, PREPARATION METHOD THEREFOR, PHARMACEUTICAL COMPOSITION AND APPLICATION THEREOF” (SHANGHAI LONGWOOD BIOPHARMACEUTICALS CO., LTD., priority 2019, published 2022).

T1 sequence (Q9NZQ7 19-238): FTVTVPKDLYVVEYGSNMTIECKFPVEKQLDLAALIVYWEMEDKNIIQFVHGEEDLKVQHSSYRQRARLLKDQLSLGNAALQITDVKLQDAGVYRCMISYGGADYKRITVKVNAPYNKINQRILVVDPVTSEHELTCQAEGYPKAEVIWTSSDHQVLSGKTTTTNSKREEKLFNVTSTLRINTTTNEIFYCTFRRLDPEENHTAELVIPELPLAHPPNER

Broadly, the IC50 is the concentration that gives 50% inhibition. A low value points to greater potency in that assay. `COc1nc(-c2cccc(-c3cccc(-c4cc5cc6c(c(C#N)c5o4)CC[C@H]6N4CC[C@@H](C(=O)NS(=O)(=O)C5(C)CC5)C4)c3C)c2Cl)cnc1CN1CC[C@@H](O)C1` [Compound 267] displayed an IC50 of at most 10 nM. Consider `COc1nc(-c2cccc(-c3cccc(-c4nc5cc6c(c(C#N)c5o4)CC[C@H]6N4CC[C@@H](C(=O)O)C4)c3Cl)c2C)cnc1CNC[C@@H]1CCC(=O)N1` [Compound 268], for which the IC50 was at most 10 nM. On to `COc1nc(-c2cccc(-c3cccc(-c4cc5cc6c(c(C#N)c5o4)CC[C@H]6N4CC[C@@H](C(=O)O)C4)c3Cl)c2C)cnc1CNC[C@@H]1CCC(=O)N1` [Compound 271], for which the 50% inhibitory concentration (IC50) was at most 10 nM. Consider `Cc1c(Nc2nccc3cc(CNC[C@@H]4CCC(=O)N4)cnc23)cccc1-c1cccc(-c2cc3cc4c(c(C#N)c3o2)CC[C@H]4N2CC[C@@H](C(=O)O)C2)c1Cl` [Compound 274], for which the IC50 was at most 10 nM.

In turn, `Cc1c(Nc2nccc3cc(CN4CC[C@@H](O)C4)cnc23)cccc1-c1cccc(-c2cc3c4c(cc([N+](=O)[O-])c3o2)C(N2CC(C(=O)O)C2)CCC4)c1C` (some centres unmarked) [Compound 280] had an IC50 of over 100 nM.
